# Biological target: T1, human motilin receptor (GPR38) (Homo sapiens, UniProt O43193)
# T1 construct: expressed in transfected cells; host or cells: CHO-K1
# Assay: GPR38 (Motilin Receptor) Functional Assay, NFAT-beta-lactamase reporter in CHO-K1 cells
# Type: cell-based
# Experimental: The potencies and efficacies of the compounds of this invention for GPR38 can be determined by reporter assay performed on the human cloned receptor as described herein.
# GPR38 (Motilin Receptor) Functional Assay
# A CHO-K1 cell line stably transfected NFAT-beta-lactamase reporter and human motilin receptor gene was used. The cells were cultured in culture medium (Dulbecco's modified eagle medium containing 10% fetal bovine serum, 1 mM sodium pyruvate, 0.1 mM MEM nonessential amino acids, 25 mM HEPES buffer, 50 units/mL penicillin, 50 microg/mL streptomycin, 100 microg/mL zeocin, and 500 microg/mL G418). The cells were harvested with 0.05% trypsin EDTA and centrifuged. The cell pellets were resuspended in the culture medium and plated into a black/clear bottom 384-well plate at a density of 8000 cells per well, then incubated at 37° C. with 5% CO2 for over night (about 20 hours). On the day of assay, the culture medium was aspirated and 20 microL of assay medium (Dulbecco's modified eagle medium containing 100 units/mL penicillin and 100 microg/mL streptomycin) was added to each well, then the cell plates were placed in incubator at 37° C. with 5% CO2 for 1.5 hours. Compounds were prepared in 100% DMSO and these were diluted to 5× of final concentration with assay buffer (Hanks balanced salt solution, 20 mM HEPES, and 0.1% BSA), then dispensed into 384-well plate (5 microL/well). After incubation at 37° C. with 5% CO2 for 4.5 hours, CCF4-AM loading solution (Invitrogen Corp.) was added to each well. After incubation for 2 hours at room temperature, fluorescence intensities were measured by using plate reader FDSS (Hamamatsu Photonics K. K.) with excitation 400 nm, emission 465 nm/540 nm. Agonistic activity (EC50) was calculated from the sigmoidal dose-response curve using GraphPad Prism software (GraphPad Software, Inc.).
# T1 sequence (O43193 whole entry): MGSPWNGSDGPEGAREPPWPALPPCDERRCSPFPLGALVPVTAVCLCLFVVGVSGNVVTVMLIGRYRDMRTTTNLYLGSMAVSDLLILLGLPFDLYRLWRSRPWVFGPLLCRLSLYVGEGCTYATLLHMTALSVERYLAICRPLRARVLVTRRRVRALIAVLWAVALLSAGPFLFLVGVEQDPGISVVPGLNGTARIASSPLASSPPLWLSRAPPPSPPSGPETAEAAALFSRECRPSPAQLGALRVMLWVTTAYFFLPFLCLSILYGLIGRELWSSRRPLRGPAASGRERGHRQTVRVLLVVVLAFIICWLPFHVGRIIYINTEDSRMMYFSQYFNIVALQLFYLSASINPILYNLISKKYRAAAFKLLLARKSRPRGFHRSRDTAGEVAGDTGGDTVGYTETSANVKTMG
row,Structure (SMILES),EC50 [nM]
1,"CN[C@@H]1CC[C@H](C(=O)N[C@@H](Cc2cccc(Cl)c2)C(=O)N2CCC(N3C(=O)C(C)(C)c4ccccc43)CC2)C1 [Example 29, (1S,3R)-N-((S)-3-(3-chlorophenyl)-1-(4-(3,3-dimethyl-2-oxoindolin-1-yl)piperidin-1-yl)-1-oxopropan-2-yl)-3-(methylamino)cyclopentane-carboxamide]",≤ 10
2,CC1(NC(=O)N[C@@H](CCc2ccccc2)C(=O)N2CCC(N3C(=O)C(C)(C)c4cc(F)ccc43)CC2)CCNCC1 [Example 72],≤ 10
3,"CN[C@@H]1CC[C@H](C(=O)N[C@@H](COc2ccccc2)C(=O)N2CCC(N3C(=O)C(C)(C)c4ccccc43)CC2)C1 [Example 38, (1S,3R)-N-((S)-1-(4-(3,3-dimethyl-2-oxoindolin-1-yl)piperidin-1-yl)-1-oxo-3-phenoxypropan-2-yl)-3-(methyl-amino)cyclopentanecarboxamide]",≤ 10
4,"CN[C@@H]1CC[C@H](C(=O)N[C@@H](CC2CCCCC2)C(=O)N2CCC(N3C(=O)C(C)(C)c4ccccc43)CC2)C1 [Example 23, (1S,3R)-N-((S)-3-cyclohexyl-1-(4-(3,3-dimethyl-2-oxoindolin-1-yl)piperidin-1-yl)-1-oxopropan-2-yl)-3-(methyl-amino)cyclopentanecarboxamide]",≤ 10
5,"CN[C@H]1CCN(C(=O)N[C@@H](Cc2ccccc2C(F)(F)F)C(=O)N2CCC(N3C(=O)C(C)(C)c4ccccc43)CC2)C1 [Example 92, (S)-N-((S)-1-(4-(3,3-dimethyl-2-oxoindolin-1-yl)piperidin-1-yl)-1-oxo-3-(2-(trifluoromethyl)phenyl)propan-2-yl)-3-(methylamino)pyrrolidine-1-carboxamide]",≤ 10
6,"CC1(NC(=O)N[C@@H](CCc2ccccc2)C(=O)N2CCC(N3C(=O)C(C)(C)c4ccccc43)CC2)CCNCC1 [Example 56, (S)-1-(1-(4-(3,3-dimethyl-2-oxo-indolin-1-yl)piperidin-1-yl)-1-oxo-4-phenylbutan-2-yl)-3-(4-methyl-piperidin-4-yl)urea]",≤ 10
7,"CC1(C)C(=O)N(C2CCN(C(=O)[C@H](CCc3ccccc3)NC(=O)C3CCNCC3)CC2)c2ccccc21 [Example 10, (S)-N-(1-(4-(3,3-dimethyl-2-oxoindolin-1-yl)piperidin-1-yl)-1-oxo-4-phenylbutan-2-yl)piperidine-4-carboxamide]",≤ 10
8,"CC1(C)C(=O)N(C2CCN(C(=O)[C@H](CCc3ccccc3)NC(=O)CN3CCCC3)CC2)c2ccccc21 [Example 17, (S)—N-(1-(4-(3,3-dimethyl-2-oxoindolin-1-yl)piperidin-1-yl)-1-oxo-4-phenylbutan-2-yl)-2-(pyrrolidin-1-yl)acetamide]",≤ 10
9,"CN[C@@H]1CC[C@H](C(=O)N[C@@H](Cc2ccccc2)C(=O)N2CCC(N3C(=O)C(C)(C)c4ccccc43)CC2)C1 [Example 30, (1S,3R)-N-((S)-1-(4-(3,3-dimethyl-2-oxoindolin-1-yl)piperidin-1-yl)-1-oxo-3-phenylpropan-2-yl)-3-(methylamino) cyclopentanecarboxamide]",≤ 10
10,"CC1(C)C(=O)N(C2CCN(C(=O)[C@H](CCc3ccccc3)NC(=O)NC[C@@H]3CCNC3)CC2)c2ccccc21 [Example 53, 1-((S)-1-(4-(3,3-dimethyl-2-oxo-indolin-1-yl)piperidin-1-yl)-1-oxo-4-phenylbutan-2-yl)-3-((R)-pyrrolidin-3-ylmethyl)urea]",≤ 10
11,"COCCN(C)CCC(=O)N[C@@H](CCc1ccccc1)C(=O)N1CCC(N2C(=O)C(C)(C)c3ccccc32)CC1 [Example 15, (S)-N-(1-(4-(3,3-dimethyl-2-oxoindolin-1-yl)piperidin-1-yl)-1-oxo-4-phenylbutan-2-yl)-3-((2-methoxyethyl)(methyl)amino) propanamide]",≤ 10
12,"CC1(C)C(=O)N(C2CCN(C(=O)[C@H](CCc3ccccc3)NC(=O)CC3(N)CCC3)CC2)c2ccccc21 [Example 6, (S)-2-(1-aminocyclobutyl)-N-(1-(4-(3,3-dimethyl-2-oxoindolin-1-yl)piperidin-1-yl)-1-oxo-4-phenylbutan-2-yl)acetamide]",≤ 10
13,"CN[C@@H]1CC[C@H](C(=O)N[C@@H](Cc2cccc3ccccc23)C(=O)N2CCC(N3C(=O)C(C)(C)c4ccccc43)CC2)C1 [Example 24, (1S,3R)-N-((S)-1-(4-(3,3-dimethyl-2-oxoindolin-1-yl)piperidin-1-yl)-3-(naphthalen-1-yl)-1-oxopropan-2-yl)-3-(methylamino)cyclopentane-carboxamide]",≤ 10
14,"C[C@@H]1CN(C(=O)N[C@@H](CCc2ccccc2)C(=O)N2CCC(N3C(=O)C(C)(C)c4ccccc43)CC2)CCN1 [Example 54, (R)-N-((S)-1-(4-(3,3-dimethyl-2-oxoindolin-1-yl)piperidin-1-yl)-1-oxo-4-phenylbutan-2-yl)-3-methyl-piperazine-1-carboxamide]",≤ 10
15,"CC1(C)C(=O)N(C2CCN(C(=O)[C@H](Cc3ccccc3)NC(=O)[C@@H]3CCCNC3)CC2)c2ccccc21 [Example 82, (R)-N-((S)-1-(4-(3,3-dimethyl-2-oxoindolin-1-yl)piperidin-1-yl)-1-oxo-3-phenylpropan-2-yl) piperidine-3-carboxamide]",≤ 10
16,"CN[C@@H]1CC[C@H](C(=O)N[C@@H](Cc2cccc(F)c2)C(=O)N2CCC(N3C(=O)C(C)(C)c4ccccc43)CC2)C1 [Example 28, (1S,3R)-N-((S)-1-(4-(3,3-dimethyl-2-oxoindolin-1-yl)piperidin-1-yl)-3-(3-fluorophenyl)-1-oxopropan-2-yl)-3-(methylamino)cyclopentane-carboxamide]",≤ 10
17,"CC1(C)C(=O)N(C2CCN(C(=O)[C@H](CCc3ccccc3)NC(=O)CCNC3CCCC3)CC2)c2ccccc21 [Example 14, (S)-3-(cyclopentylamino)-N-(1-(4-(3,3-dimethyl-2-oxoindolin-1-yl)piperidin-1-yl)-1-oxo-4-phenylbutan-2-yl)propanamide]",≤ 10
18,"CN1CCC[C@@H](C(=O)N[C@@H](CCc2ccccc2)C(=O)N2CCC(N3C(=O)C(C)(C)c4ccccc43)CC2)C1 [Example 20, (R)—N—((S)-1-(4-(3,3-dimethyl-2-oxoindolin-1-yl)piperidin-1-yl)-1-oxo-4-phenylbutan-2-yl)-1-methylpiperidine-3-carboxamide]",≤ 10
19,"CN[C@H]1CCN(C(=O)N[C@@H](Cc2ccccc2Cl)C(=O)N2CCC(N3C(=O)C(C)(C)c4ccccc43)CC2)C1 [Example 93, (S)-N-((S)-3-(2-chloro-phenyl)-1-(4-(3,3-dimethyl-2-oxoindolin-1-yl)piperidin-1-yl)-1-oxopropan-2-yl)-3-(methylamino)pyrrolidine-1-carboxamide]",≤ 10
20,"CN1CCC(C)(NC(=O)N[C@@H](CCc2ccccc2)C(=O)N2CCC(N3C(=O)C(C)(C)c4ccccc43)CC2)CC1 [Example 69, (S)-1-(1-(4-(3,3-dimethyl-2-oxo-indolin-1-yl)piperidin-1-yl)-1-oxo-4-phenylbutan-2-yl)-3-(1,4-dimethylpiperidin-4-yl)urea]",≤ 10
21,"CC1(C)C(=O)N(C2CCN(C(=O)[C@H](Cc3ccccc3F)NC(=O)[C@@H]3CCCNC3)CC2)c2ccccc21 [Example 83, (R)-N-((S)-1-(4-(3,3-dimethyl-2-oxoindolin-1-yl)piperidin-1-yl)-3-(2-fluorophenyl)-1-oxo-propan-2-yl)piperidine-3-carboxamide]",≤ 10
22,"CC1(C)C(=O)N(C2CCN(C(=O)[C@H](CCc3ccccc3)NC(=O)C3CNC3)CC2)c2ccccc21 [Example 9, (S)-N-(1-(4-(3,3-dimethyl-2-oxoindolin-1-yl)piperidin-1-yl)-1-oxo-4-phenylbutan-2-yl)azetidine-3-carboxamide]",≤ 10
23,"CC1(C)C(=O)N(C2CCN(C(=O)[C@H](Cc3ccc(Cl)cc3)NC(=O)[C@@H]3CCCNC3)CC2)c2ccccc21 [Example 87, (R)-N-((S)-3-(4-chloro-phenyl)-1-(4-(3,3-dimethyl-2-oxoindolin-1-yl)piperidin-1-yl)-1-oxopropan-2-yl)piperidine-3-carboxamide]",≤ 10
24,"CN[C@H]1CCN(C(=O)N[C@@H](CCc2ccccc2)C(=O)N2CCC(N3C(=O)C(C)(C)c4cc(F)ccc43)CC2)C1 [Example 70, (S)—N—((S)-1-(4-(5-fluoro-3,3-dimethyl-2-oxoindolin-1-yl)piperidin-1-yl)-1-oxo-4-phenylbutan-2-yl)-3-(methylamino)pyrrolidine-1-carboxamide]",≤ 10
25,"CC1(C)C(=O)N(C2CCN(C(=O)[C@H](CCc3ccccc3)NC(=O)[C@@H]3CCCCN3)CC2)c2ccccc21 [Example 2, (S)-N-((S)-1-(4-(3,3-dimethyl-2-oxoindolin-1-yl)piperidin-1-yl)-1-oxo-4-phenylbutan-2-yl)piperidine-2-carboxamide]",≤ 10
26,"CC1(C)C(=O)N(C2CCN(C(=O)[C@H](Cc3ccccc3Cl)NC(=O)C3CCNCC3)CC2)c2ccccc21 [Example 79, (S)-N-(3-(2-chlorophenyl)-1-(4-(3,3-dimethyl-2-oxo-indolin-1-yl)piperidin-1-yl)-1-oxopropan-2-yl) piperidine-4-carboxamide]",≤ 10

# From US8697877B2, “Oxyindole derivatives with motilin receptor agonistic activity” (RaQualia Pharma Inc., priority 2009, dated 2014)
